Row | melting point | Structure (SMILES)
1 | 229 to 230 °C | Cn1cc(C(=O)NCc2ccc(Cl)cc2)c(=O)c2cc(CO)oc21
2 | 115 to 119 °C | CN(Cc1cc2c(=O)c(C(=O)NCc3ccc(Cl)cc3)cn(C)c2o1)CC(O)c1ccc(-c2ccccc2)o1 (stereo not shown)
3 | 157 to 160 °C | Cn1cc(C(=O)NCc2ccc(Cl)cc2)c(=O)c2cc(CCCCO)oc21
4 | 140 to 140.5 °C | Cc1cc(C(O)CN(C)Cc2cc3c(=O)c(C(=O)NCc4ccc(Cl)cc4)cn(C)c3o2)oc1C (stereo not shown)
5 | 122 to 124 °C (dec.) | CN(Cc1cc2c(=O)c(C(=O)NCc3ccc(Cl)cc3)cn(C)c2o1)CC(O)c1cccn1C (stereo not shown)
6 | 131 to 134 °C | CCN(CC)CCn1cc(C(=O)NCc2ccc(Cl)cc2)c(=O)c2cc(CN3CCOCC3)oc21
7 | 114 to 116 °C | CN(Cc1cc2c(=O)c(C(=O)NCc3ccc(Cl)cc3)cn(C)c2o1)CC(O)c1nccs1 (stereo not shown)
8 | 172 to 173 °C | CC(O)CNCc1cc2c(=O)c(C(=O)NCc3ccc(Cl)cc3)cn(C)c2o1 (stereo not shown)
9 | 209 to 211 °C (dec.) | Cn1cc(C(=O)NCc2ccc(Cl)cc2)c(=O)c2cc(C#CC(O)c3ccccc3)oc21 (stereo not shown)
10 | 150 to 153 °C | O=C(NCc1ccc(Cl)cc1)c1cn(CCc2ccccc2)c2oc(CN3CCOCC3)cc2c1=O
11 | 93 to 97 °C | CN(Cc1cc2c(=O)c(C(=O)NCc3ccc(Cl)cc3)cn(C)c2o1)CC(O)c1ccoc1 (stereo not shown)
12 | 133 to 138 °C | CN(Cc1cc2c(=O)c(C(=O)NCc3ccc(Cl)cc3)cn(C)c2o1)CC(O)c1ccccn1 (stereo not shown) [42]
13 | 130 to 132 °C | Cc1ccc(C(O)CN(C)Cc2cc3c(=O)c(C(=O)NCc4ccc(Cl)cc4)cn(C)c3o2)o1 (stereo not shown)
14 | 215 to 219 °C (dec.) | Cn1cc(C(=O)NCc2ccc(Cl)cc2)c(=O)c2cc(C#CCCCO)oc21
15 | 211 to 212 °C | Cn1cc(C(=O)NCc2ccc(Cl)cc2)c(=O)c2cc(CN3CCOCC3)oc21
16 | 176 to 179 °C | CN(Cc1cc2c(=O)c(C(=O)NCc3ccc(Cl)cc3)cn(C)c2o1)CC(O)c1cc2ccccc2o1 (stereo not shown)
17 | 130 to 132 °C | CN(Cc1cc2c(=O)c(C(=O)NCc3ccc(Cl)cc3)cn(C)c2o1)CC(O)c1ccccn1 (stereo not shown) [41]
18 | 116 to 120 °C | COc1cccc(C(O)CN(C)Cc2cc3c(=O)c(C(=O)NCc4ccc(Cl)cc4)cn(C)c3o2)c1 (stereo not shown)
19 | 230 to 245 °C | O=C(NCc1ccc(Cl)cc1)c1cc2c(O)c(C(=O)NCc3ccc(Cl)cc3)cnc2o1
20 | 232 to 233 °C | Cn1cc(C(=O)NCc2ccc(Cl)cc2)c(=O)c2cc(Br)oc21
21 | 154 to 159 °C (dec.) | CN(Cc1cc2c(=O)c(C(=O)NCc3ccc(Cl)cc3)cn(C)c2o1)CC(O)c1ccc2ccccc2n1 (stereo not shown)
22 | 145 to 147 °C | CN(Cc1cc2c(=O)c(C(=O)NCc3ccc(Cl)cc3)cn(C)c2o1)CC(O)c1cccs1 (stereo not shown)

The remaining lines, values behind:

Row | Structure (SMILES) | melting point
23 | CN(Cc1cc2c(=O)c(C(=O)NCc3ccc(Cl)cc3)cn(C)c2o1)CC(O)c1cnccn1 (stereo not shown) | 148 to 151 °C
24 | CN(Cc1cc2c(=O)c(C(=O)NCc3ccc(Cl)cc3)cn(C)c2o1)C[C@@H](O)c1ncccn1 | 127 to 129 °C
25 | Cn1cc(C(=O)NCc2ccc(Cl)cc2)c(=O)c2ccoc21 | 197 to 205 °C
26 | CN(Cc1cc2c(=O)c(C(=O)NCc3ccc(Cl)cc3)cn(C)c2o1)CC(O)c1cccnc1 (stereo not shown) | 145 to 149 °C
27 | Cn1cc(C(=O)NCc2ccc(Cl)cc2)c(=O)c2cc(CCCCCO)oc21 | 151 to 152 °C
28 | Cn1cc(C(=O)NCc2ccc(Cl)cc2)c(=O)c2cc(CN3CC[C@@H](O)C3)oc21 | 189 to 190 °C
29 | CC(O)CN(C)Cc1cc2c(=O)c(C(=O)NCc3ccc(Cl)cc3)cn(C)c2o1 (stereo not shown) | 152 °C
30 | CN(Cc1cc2c(=O)c(C(=O)NCc3ccc(Cl)cc3)cn(C)c2o1)CC(O)c1ccc(C#N)s1 (stereo not shown) | 190 to 195 °C (dec.)
31 | CN(Cc1cc2c(=O)c(C(=O)NCc3ccc(C(F)(F)F)cc3)cn(C)c2o1)C[C@@H](O)c1ccco1 | 113 to 115 °C
32 | CN(Cc1cc2c(=O)c(C(=O)NCc3ccc(Cl)cc3)cn(C)c2o1)CC(O)c1ccccc1 (stereo not shown) | 118 to 121 °C
33 | CN(Cc1cc2c(=O)c(C(=O)NCc3ccc(Cl)cc3)cn(C)c2o1)CC(CO)c1ccccc1 (stereo not shown) | 141 to 148 °C
34 | Cn1cc(C(=O)NCc2ccc(Cl)cc2)c(=O)c2cc(C#CCCO)oc21 | 242 to 243 °C (dec.)
35 | CN(Cc1cc2c(=O)c(C(=O)NCc3ccc(Cl)cc3)cn(C)c2o1)CC(O)c1ccc(O)cc1 (stereo not shown) | 117 to 122 °C
36 | Cn1cc(C(=O)NCc2ccc(Cl)cc2)c(=O)c2cc(C#CCC(O)c3ccccc3)oc21 (stereo not shown) | 202 to 203 °C (dec.)
37 | Cn1cc(C(=O)NCc2ccc(Cl)cc2)c(=O)c2cc(CN3CCC[C@@H]3[C@@H](O)c3ccccc3)oc21 (relative stereo) | 141 to 150 °C (dec.)
